From patent publication US12428389B2, “Diarylamide compound and application thereof” (Sunshine Lake Pharma Co., Ltd., priority 2019, dated 2025)
pIC50: −log10 of the molar value. Like-named read-outs stand apart in the source and are kept apart here.

Key:
UT-B [1] = target: T1, UT-B (Rattus norvegicus, UniProt P97689); experiment: erythrocyte lysis model, rat erythrocytes; assay type: cell-based, rats; details: concentration when the erythrocyte lysis rate of rats was 50%; read-out: IC50 rats
T1 construct: endogenous in cells; host or cells: erythrocytes of SD rats
T1 sequence (P97689 1-384): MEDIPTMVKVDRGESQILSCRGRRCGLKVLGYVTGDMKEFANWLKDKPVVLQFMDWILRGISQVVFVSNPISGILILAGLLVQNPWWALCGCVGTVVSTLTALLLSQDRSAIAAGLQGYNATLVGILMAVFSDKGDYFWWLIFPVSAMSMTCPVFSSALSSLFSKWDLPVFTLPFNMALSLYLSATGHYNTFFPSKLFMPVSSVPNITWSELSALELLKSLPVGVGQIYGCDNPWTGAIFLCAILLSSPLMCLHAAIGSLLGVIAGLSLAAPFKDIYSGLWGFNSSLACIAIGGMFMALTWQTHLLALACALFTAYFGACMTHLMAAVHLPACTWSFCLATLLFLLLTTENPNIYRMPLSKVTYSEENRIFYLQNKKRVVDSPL
Procedure: (§1) Erythrocyte lysis rate was calculated:
(§2) The formula for calculating the lysis rate percentage of erythrocytes, wherein Atest was the absorbance value of the test well, Aneg was the absorbance value of the negative control well, and Apos was the absorbance value of the positive control well. Erythrocyte lysis rate was calculated by measuring absorption at a wavelength of 710 nm.
(§3) The erythrocytes of three species of human, rats (SD rats) and mice (C57 mice) were taken, and urea transporter inhibitors were preliminarily screened from the above screening compound library by using the erythrocyte urea transporter inhibitor screening model.

human UT-B = target: T2, human UT-B (Homo sapiens, UniProt Q13336); experiment: erythrocyte lysis model, human erythrocytes; assay type: cell-based
T2 construct: endogenous in cells; host or cells: human erythrocytes
T2 sequence (Q13336 1-389): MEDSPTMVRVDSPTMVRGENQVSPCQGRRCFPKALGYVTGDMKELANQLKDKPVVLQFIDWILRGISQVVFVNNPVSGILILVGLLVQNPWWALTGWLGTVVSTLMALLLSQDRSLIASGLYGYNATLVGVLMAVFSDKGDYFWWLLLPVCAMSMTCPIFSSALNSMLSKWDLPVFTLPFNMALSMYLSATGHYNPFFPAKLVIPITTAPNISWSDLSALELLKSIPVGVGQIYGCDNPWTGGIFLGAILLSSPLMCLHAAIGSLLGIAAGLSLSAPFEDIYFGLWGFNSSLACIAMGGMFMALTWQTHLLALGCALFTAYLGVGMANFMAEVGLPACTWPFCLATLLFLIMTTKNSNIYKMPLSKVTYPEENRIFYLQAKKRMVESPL
Procedure: as §1, §2, §3

UT-B [2] = target: T3, UT-B (Mus musculus, UniProt Q8VHL0); experiment: erythrocyte lysis model, mouse erythrocytes; assay type: cell-based; details: concentration when the erythrocyte lysis rate of mice was 50%
T3 construct: endogenous in cells; host or cells: erythrocytes of C57 mice
T3 sequence (Q8VHL0 1-384): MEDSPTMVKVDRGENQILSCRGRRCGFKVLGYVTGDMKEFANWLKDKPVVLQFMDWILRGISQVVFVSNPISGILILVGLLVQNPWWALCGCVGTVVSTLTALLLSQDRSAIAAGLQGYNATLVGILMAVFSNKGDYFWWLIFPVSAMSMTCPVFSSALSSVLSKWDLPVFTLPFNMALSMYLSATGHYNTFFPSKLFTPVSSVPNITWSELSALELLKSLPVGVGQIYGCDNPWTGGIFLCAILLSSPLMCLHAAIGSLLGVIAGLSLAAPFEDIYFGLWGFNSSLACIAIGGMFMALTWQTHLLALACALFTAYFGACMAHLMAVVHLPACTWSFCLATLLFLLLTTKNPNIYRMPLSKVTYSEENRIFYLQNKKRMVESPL
Procedure: as §1, §2, §3

[3] = class of the IC50 to human UT-B, read-out: Activity level
[4] = concentration when the erythrocyte lysis rate of human was 50%, read-out: IC50 human

Compound	pIC50 (UT-B [1])	pIC50 (human UT-B; [3])	pIC50 (human UT-B; [4])	pIC50 (UT-B [2])
CN(C)CCNC(=O)c1cccc(NC(=O)c2ccc([N+](=O)[O-])o2)c1 [Example 60, N-(3-((2-dimethylaminoethyl)carbamoyl)phenyl)-5-nitrofuran-2-carboxamide]	6.68	> 5.00	5.43	6.13
O=C(NCCN1CCOCC1)c1cccc(NC(=O)c2ccc([N+](=O)[O-])o2)c1 [Example 61, N-(3-((2-morpholinylethyl)carbamoyl)phenyl)-5-nitrofuran-2-carboxamide]	5.96	> 5.00	6.27	5.58
O=C(NCCCN1CCOCC1)c1cccc(NC(=O)c2ccc([N+](=O)[O-])o2)c1 [Example 62, N-(3-((3-morpholinylpropyl)carbamoyl)phenyl)-5-nitrofuran-2-carboxamide]	5.85	> 5.00	5.48	5.36
CNC(=O)c1cc(NC(=O)c2ccc([N+](=O)[O-])o2)ccc1C [Example 63, N-(4-methyl-3-methylcarbamoylphenyl)-5-nitrofuran-2-carboxamide]	5.75	> 5.00	5.77	5.91
CNC(=O)c1cc(C)cc(NC(=O)c2ccc([N+](=O)[O-])o2)c1 [Example 64, N-(5-methyl-3-methylcarbamoylphenyl)-5-nitrofuran-2-carboxamide]	6.49	> 5.00	5.97	5.55
CNC(=O)c1cc(F)cc(NC(=O)c2ccc([N+](=O)[O-])o2)c1 [Example 66, N-(5-fluoro-3-methylcarbomoylphenyl)-5-nitrofuran-2-carboxamide]	6.06	> 5.00	5.48	5.65
CNC(=O)c1cc(NC(=O)c2ccc([N+](=O)[O-])o2)ccc1O [Example 67, N-(4-hydroxy-3-methylcarbomoylphenyl)-5-nitrofuran-2-carboxamide]	5.95	> 5.00	5.58	5.58
CNC(=O)c1cc(NC(=O)c2ccc([N+](=O)[O-])o2)cc(C(=O)NC)c1 [Example 68, N^1,N^3-dimethyl-5-(5-nitrofuran-2-carboxamide) isophthalamide]	4.46	4.10 to 4.70	4.64	5.24
CN1C(=O)c2ccc(NC(=O)c3ccc([N+](=O)[O-])o3)cc2C1=O [Example 69, N-(2-methyl-1,3-dihydro-1,3-dioxo-2H-isoindol-5-yl)-5-nitrofuran-2-carboxamide]	5.53	4.70 to 5.00	4.91	5.29
CN(C)CC(=O)Nc1ccc(NC(=O)c2ccc([N+](=O)[O-])o2)cc1 [Example 71, N-(4-(2-dimethylamino)acetamidophenyl)-5-nitrofuran-2-carboxamide]	6.24	> 5.00	5.90	5.27
O=C(CN1CCOCC1)Nc1ccc(NC(=O)c2ccc([N+](=O)[O-])o2)cc1 [Example 72, N-(4-(2-morpholinyl)acetamidophenyl)-5-nitrofuran-2-carboxamide]	5.54	> 5.00	5.52	5.13
CN(C)CCC(=O)Nc1ccc(NC(=O)c2ccc([N+](=O)[O-])o2)cc1 [Example 73, N-(4-(3-dimethylamino)propionylaminophenyl)-5-nitrofuran-2-carboxamide]	5.89	> 5.00	5.18	4.57
CN(C)CCNCC(=O)Nc1ccc(NC(=O)c2ccc([N+](=O)[O-])o2)cc1 [Example 74, N-(4-((2-dimethylamino)ethylamino)acetamidophenyl)-5-nitrofuran-2-carboxamide]	5.91	> 5.00	5.52	5.02
CCOC(=O)c1cc(NC(=O)c2ccc([N+](=O)[O-])o2)[nH]n1 [Example 77, ethyl 5-(5-nitrofuran-2-carboxamide)-1H-pyrazole-3-carboxylate]	5.11	> 5.00	5.79	4.94
CNC(=O)c1cccc(NC(=O)c2ccc(C(C)=O)o2)c1 [Example 78, 3-(5-acetyl-2-furoyl)carbamamide]	6.62	> 5.00	6.89	6.28
C#Cc1cccc(NC(=O)c2ccc([N+](=O)[O-])o2)c1 [Example 79, N-3-(ethynylphenyl)-5-nitrofuran-2-carboxamide]	5.96	> 5.00	6.09	5.31
N-(4-fluoro-3-methylcarbomoylphenyl)-5-nitrofuran-2-carboxamide [Example 65]	4.74	4.10 to 4.70	4.62	5.36
ethyl 2-acetamido-5-(5-nitrofuran-2-carboxamide) benzoate [Example 75]	5.32	> 5.00	6.43	5.19
